“And” between values parts separate entries of the source, which are not always exact repeats. Equal entries are not always repeated. Structures can show the parent of a compound that is named as a salt. Where two headings read alike, the source gives them in different places. Blank lines part the entries; values can stand above or below the compound they belong to.
Columns and labels:
Recombinant MAPKAPK2 = Recombinant MAPKAPK2 (Homo sapiens, UniProt P49137); test: Determination of MK-2 IC50 (HSP-peptide phosphorylation, anion exchange resin capture assay)
Procedure: The phosphorylation of HSP-peptide ([sequence]) by MAPKAPK2 was measured using an anion exchange resin capture assay method. […] The reaction was terminated and [γ^33P]ATP was removed from solution by the addition of 150 μl of AG 1×8 ion exchange resin in 900 mM sodium formate pH 3.0. A 50 μl aliquot of head volume was removed from the quenched reaction mixture and added to a 96-well plate, 150 μl of Microscint-40 (Packard) was added and the amount of phosphorylated-peptide was determined. Allow the Microscint to sit in the plates for 60 minutes prior to counting.
Compounds are evaluated as potential inhibitors of the MK2 kinase by measuring their effects on MK2 phosphorylation of the peptide substrate. Compounds may be screened initially at two concentrations prior to determination of IC50 values. Screening results are expressed as percent inhibition at the concentrations of compound tested. For IC50 value determinations, compounds are tested at six concentrations in ten-fold serial dilutions with each concentration tested in triplicate. Results are expressed as IC50 values in micromolar. The assay is performed at a final concentration of 2% DMSO.

TNFα release, U937 cells = test: U937 Cell TNFα Release Assay (LPS-stimulated, TNFα ELISA); format: cell-based, human; settings: additional values are replicate IC50 experiments, read-out: TNF Release Assay Avg. IC50
Procedure: U937 Cell TNFα Release Assay
Differentiation of U937 to monocytic/macrophage-like cells is induced by the addition of phorboll2-myristate 13-acetate (Sigma) at final concentration of 20 ng/ml to a culture of U937 cells at ˜0.5 million cells/ml and incubated for 24 hrs. The cells are centrifuged, washed with PBS and resuspended in fresh media without PMA and incubated for 24 hrs. Cells adherent to the culture flask are harvested by scraping, centrifugation, and resuspended in fresh media to 2 million cells/ml, and 0.2 ml is aliquoted to each of 96 wells in flat-bottom plate. Cells are then incubated for an additional 24 hrs to allow for recovery. The media is removed from the cells, and 0.1 ml of fresh media is added per well. 0.05 ml of serially diluted compound or control vehicle (Media with DMSO) is added to the cells. […] Cells are incubated at 37° C. for 4 hrs. After 4 hrs incubation, supernatants are harvest and assayed by ELISA for the presence of TNFα.
Coating solution was aspirated the following day and wells were blocked with 1 mg/ml gelatin in PBS (plus 1×thimerasol) for 2 days at 4° C. Prior to using, wells were washed 3× with wash buffer (PBS with 0.05% Tween). Cultured media samples were diluted in EIA buffer (5 mg/ml bovine γ-globulin, 1 mg/ml gelatin, 1 ml/l Tween-20, 1 mg/ml thimerasol in PBS), added to wells (0.1 ml/well) in triplicate and allowed to incubate for 1.5 hr at 37° C. in a humidified chamber. […] After final washing, plates were developed with peroxidase-ABTS solution (Kirkegaard/Perry #50-66-01, 0.1 ml/well). […] TNF levels were quantitated from a recombinant human TNFα (R&D Systems #210-TA-010) standard curve using a quadratic parameter fit generated by SoftMaxPRO software. ELISA sensitivity was approximately 30 pg TNF/ml. IC50 values for compounds were generated using BioAssay Solver.

[1] = test system: mouse collagen-induced arthritis; settings: in vivo; cited from earlier work
rat adjuvant arthritis = settings: in vivo; cited from earlier work
[2] = test system: murine model of endotoxin-induced shock; settings: cited from earlier work
[3] = read-out: in vitro MK-2 inhibition IC50
[4] = Homo sapiens, U-937, U937 cells

Recombinant MAPKAPK2, sequence (P49137 whole entry, species assumed): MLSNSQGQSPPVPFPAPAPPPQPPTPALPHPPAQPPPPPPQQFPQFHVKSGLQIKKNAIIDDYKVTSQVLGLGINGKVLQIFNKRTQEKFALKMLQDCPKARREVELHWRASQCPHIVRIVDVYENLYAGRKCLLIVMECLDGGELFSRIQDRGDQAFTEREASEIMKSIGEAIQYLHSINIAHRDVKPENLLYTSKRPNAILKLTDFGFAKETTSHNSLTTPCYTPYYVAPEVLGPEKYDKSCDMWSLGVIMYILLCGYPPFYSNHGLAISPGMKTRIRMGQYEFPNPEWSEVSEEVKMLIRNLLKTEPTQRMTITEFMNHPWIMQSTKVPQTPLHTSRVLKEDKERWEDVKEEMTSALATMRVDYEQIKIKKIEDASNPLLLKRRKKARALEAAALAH

IC50 (Recombinant MAPKAPK2): 7.01 µM | IC50 (TNFα release, U937 cells; [4]): 15.3 µM
SMILES: O/N=C1\CCCc2c1[nH]c1ccc(Br)cc21 [Compound 14]

IC50 (TNFα release, U937 cells; U937 cells): 100 µM and 95 µM
SMILES: COc1ccc2[nH]c3c(c2c1)CCC(C)/C3=N/O (stereo not shown) [Compound 19, 6-methoxy-2-methyl-2,3,4,9-tetrahydro-1H-car-bazol-1-one oxime]

IC50 (Recombinant MAPKAPK2): > 200 µM
SMILES: O=C1NCCc2c1[nH]c1ccc(CCc3ccccc3)cc21 [Compound 42, 6-(2-phenylethyl)-2,3,4,9-tetra-hydro-1H-beta-car-bolin-1-one]

IC50 (Recombinant MAPKAPK2; [3]): < 20 µM
SMILES: COC(=O)c1cccc2c3c([nH]c12)CCNC3=O [Example 6, methyl 1-oxo-2,3,4,5-tetrahydro-1H-pyrido[4,3-b]indole-6-carboxylate]

Continued, compound first:

SMILES: ON=C1CCCc2c1[nH]c1ccc(C(F)(F)F)cc21 [6-(trifluoromethyl)-2,3,4,9-tetrahydro-1H-carbazol-1-one oxime]
IC50 (Recombinant MAPKAPK2; [3]): < 200 µM

SMILES: O=C1NCCc2[nH]c3c(ccc4cnccc43)c21 [Compound 1, 8,9,10,11-tetrahydro-7H-py-rido[3′,4′:4,5]pyrrolo[2,3-f]isoquinolin-7-one trifluoroacetate]
IC50 (TNFα release, U937 cells; [4]): 0.845 µM

SMILES: C[S+]([O-])c1ccc(-c2nc(-c3ccncc3)c(-c3ccc(F)cc3)[nH]2)cc1 (stereo not shown) [SB203580]
development of mouse collagen-induced arthritis [1]: inhibit the development | development of rat adjuvant arthritis (rat adjuvant arthritis): inhibit the development | mortality [2]: reduce mortality
